Measured values as given in patent publication US9956243B2, “Combination treatment for acute myeloid leukemia (AML)” (Hoffmann-La Roche Inc., priority 2013, dated 2018).

Tests used:
[1] = system: MOLM-13-luc.c4 (AML) human AML cells; test: Antitumor efficacy and survival / increase in life span (ILS) in disseminated MOLM-13.luc.c4 AML model; type: in vivo, SCID beige mice; details: for tumor burden by BLI photon counts: 5 million cells, treatment from day 3, vs Vehicle-treated control mice (FIG. 1); for Median survival: vehicle control 20.5 days
Method: (§1) Female SCID beige mice (10/group), obtained from Charles River Laboratories (Wilmington, Del.) were used when they were approximately 8-12 weeks old and weighed approximately 20-25 grams. The health of the mice was assessed daily by gross observation and analyses of blood samples taken from sentinel animals housed on shared shelf racks. All animals were allowed to acclimate and recover from any shipping-related stress for a minimum of 72 hours prior to experimental use. Autoclaved water and irradiated food (5058-ms Pico Lab mouse chow, Purina Mills, Richmond, Ind.) were provided ad libitum, and the animals were maintained on a 12 hour light and dark cycle. Cages, bedding and water bottles were autoclaved before use and changed weekly. All animal experiments were conducted in accordance with the Guide for the Care and Use of Laboratory Animals, local regulations, and protocols approved by the Roche Animal Care and Use Committee in an AAALAC accredited facility.
Parental MOLM-13 human AML cells were stably transfected with Luc2 lentiviral particles for 24 hrs in the presence of Polybrene (8 ug/ml) and then selected in the presence of Blasticidin for 3 weeks. Subsequently, one clone was selected by single cell plating in the presence of 0.1 mg/mL G418 and was designated MOLM-13.luc.c4. The lentiviral Luc2 expression plasmid was constructed by incorporating Luc2 gene (Promega) in to pLOC lentiviral plasmid backbone (Thermo Fisher Scientific). Luc2 lentiviral particles were prepared by using Trans-Lentiviral Packaging System (Thermo Fisher Scientific) as recommended.
MOLM-13.luc.c4 was maintained with RPMI 1640 with L-glutamine (2 mM) media (GIBCO/Invitrogen, Carlsbad, Calif.) supplemented with 10% heat-inactivated Fetal Bovine Serum (HI-FBS; GIBCO/Invitrogen, Carlsbad, Calif.), and 1% 100 mM sodium pyruvate. Freshly dissociated MOLM13-Luc.c4 cells (1×106 or 5×106) suspended in Phosphate Buffered Saline (PBS) were then intravenously inoculated via the caudal tail vein into female SCID-beige mice.
It was then filtered thru a 0.22 micron filter into a septum sealed vial for intravenous administration. […] Stock cytarabine (Ara-C injection, 100 mg/ml) was diluted in sterile 0.9% sodium chloride to 44 mg/ml according to manufacturer's instructions and dosed at 200 mg/kg iv twice weekly.
Treatment duration was 3 weeks.
(§2) For increased life span (ILS) assessment, animal body weights were measured two to three times per week, and animals were monitored daily for any clinical signs of toxicity or excessive tumor burden (i.e. hind limb paralysis or morbidity). In addition, progression of disease was monitored by in vivo bioluminescent imaging (BLI) using IVIS® Spectrum system. For each BLI session, mice received 100 mg/kg D-luciferin (Caliper Life Sciences/Perkin-Elmer) via ip injections and were imaged at 20 min post luciferin injection at either a 5 s or a 10 s exposure time. Images were captured by the IVIS® Spectrum system and data were collected and analyzed with Living Image 4.2.0 software (Caliper Life Sciences, Hopkinton, Mass.). Total photon fluxes (ph/s) representing luciferase activity within each fixed region of interest (ROI) covering whole tumors of individual mice were determined. The actual images of mice are not disclosed herein.
Quantification of bioluminescence allowed for direct longitudinal comparison of tumor burden between treatment groups prior to surrogate death end points being reached. Tumor burden was graphically represented as the mean BLI photon flux+standard error of the mean (SEM), and median survival was determined utilizing Kaplan Meier survival analysis. Statistical analysis of comparisons between groups was analyzed by two-way ANOVA, and post-hoc Bonferroni test (GraphPad Prism, version 4.3). Differences between groups were considered to be significant when the probability value (p) was ≤0.05.

[2] = Ara-C 200 mg/kg 2x/week iv; 10 mice/group
Method: as §1, with “Cages, bedding and water bottles were autoclaved before use and changed weekly. All animal experiments were conducted in accordance with the Guide for the Care and Use of Laboratory Animals, local regulations, and protocols approved by the Roche Animal Care and Use Committee in an AAALAC accredited facility.” left out
as §2, with “For each BLI session, mice received 100 mg/kg D-luciferin (Caliper Life Sciences/Perkin-Elmer) via ip injections and were imaged at 20 min post luciferin injection at either a 5 s or a 10 s exposure time.” left out, “The actual images of mice are not disclosed herein.” left out

Compound | tumor burden by BLI photon counts [1] | % ILS vs. Vehicle control ([1]; Cpd I-B 437 mg/kg q7d iv, p < 0.05 vs vehicle) | % ILS vs. Vehicle control ([1]; Cpd I-B 437 mg/kg q7d iv, p < 0.05 vs vehicle, listed as Cpd I-B) | Median survival ([1]; Cpd I-B 437 mg/kg q7d iv) | Mortality [2] | % ILS vs. Vehicle control ([1]; Ara-C 200 mg/kg 2x/wk iv) | Median survival ([1]; Ara-C 200 mg/kg 2x/wk iv) | monotherapy antitumor activity as assessed by tumor burden (BLI) or ILS [1] | monotherapy antitumor activity as assessed by tumor burden (BLI) or ILS ([1]; listed as Cytarabine (Ara-C))
4-{[(2R,3S,4R,5S)-3-(3-Chloro-2-fluoro-phenyl)-4-(4-chloro-2-fluoro-phenyl)-4-cyano-5-(2,2-dimethyl-propyl)-pyrrolidine-2-carbonyl]amino}-3-methoxy-benzoic acid 1-mPEG-carbonyloxy-ethyl ester (mPEG, average MW, ˜2200) [compound I-B] | significantly reduced photon counts | 37% | *37% | 28 days | – | – | – | – | –
Nc1ccn([C@@H]2O[C@H](CO)[C@@H](O)[C@@H]2O)c(=O)n1 [Ara-C, cytarabine] | no difference | – | – | – | 0 | 0% | 20 days | lack of monotherapy activity | lack of antitumor activity
